The experiment addresses NLRP3 (Homo sapiens, UniProt Q96P20). As to the kind of experiment: THP-1 cells pyroptosis assay. The format is cell-based. Particulars: LPS 1.0 μg/ml, nigericin 5 μM, resazurin readout, 10 μM top dose (Example 2: top dose of 30 μM). Also on record: Seed THP-1 cells (25,000 cells/well) containing 1.0 μg/ml LPS; host or cells: THP-1. In short, it runs like this: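 THP-1 cells (25,000/well) primed with 1 μg/ml LPS in serum-free RPMI, treated with compound (8-point dilution, 10 μM top unless stated; 0.1% DMSO) 3 h at 37°C, then nigericin 5 μM 1 h. Viability read by resazurin (100 μM, 1-2 h) fluorescence; IC50 from 4-parameter fit.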

The record followed here is patent US20210261512A1, “NOVEL COMPOUNDS” (INFLAZOME LIMITED, priority 2018, published 2021).

Molecules are shown by their SMILES.

NLRP3, sequence (Q96P20 whole entry): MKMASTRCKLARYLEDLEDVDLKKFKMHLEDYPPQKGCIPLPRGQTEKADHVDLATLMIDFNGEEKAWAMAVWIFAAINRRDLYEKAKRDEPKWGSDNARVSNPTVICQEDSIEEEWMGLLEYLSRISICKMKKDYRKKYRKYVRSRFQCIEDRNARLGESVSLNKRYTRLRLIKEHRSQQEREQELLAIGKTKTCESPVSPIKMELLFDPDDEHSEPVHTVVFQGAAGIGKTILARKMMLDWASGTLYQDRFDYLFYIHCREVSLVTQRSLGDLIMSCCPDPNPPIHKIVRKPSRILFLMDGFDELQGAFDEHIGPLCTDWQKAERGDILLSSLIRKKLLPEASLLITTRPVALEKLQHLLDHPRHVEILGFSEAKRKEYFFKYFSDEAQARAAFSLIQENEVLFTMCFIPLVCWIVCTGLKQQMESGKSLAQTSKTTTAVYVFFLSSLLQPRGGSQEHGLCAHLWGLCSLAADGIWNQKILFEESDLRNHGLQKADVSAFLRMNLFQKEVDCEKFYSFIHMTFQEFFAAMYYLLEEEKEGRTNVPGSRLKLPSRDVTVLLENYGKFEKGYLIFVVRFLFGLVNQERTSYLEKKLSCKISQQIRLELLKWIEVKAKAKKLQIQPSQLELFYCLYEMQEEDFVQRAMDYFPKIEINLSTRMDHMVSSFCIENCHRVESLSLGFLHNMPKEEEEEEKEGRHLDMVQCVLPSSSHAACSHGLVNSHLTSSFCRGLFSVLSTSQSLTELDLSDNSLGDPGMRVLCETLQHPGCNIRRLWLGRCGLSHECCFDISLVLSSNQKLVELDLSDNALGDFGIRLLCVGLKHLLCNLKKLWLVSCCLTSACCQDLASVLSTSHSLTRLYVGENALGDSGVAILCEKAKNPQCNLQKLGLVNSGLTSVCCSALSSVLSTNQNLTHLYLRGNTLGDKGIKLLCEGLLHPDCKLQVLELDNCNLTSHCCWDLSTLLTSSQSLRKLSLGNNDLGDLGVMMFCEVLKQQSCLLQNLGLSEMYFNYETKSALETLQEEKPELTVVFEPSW

`O=S(=O)(c1ccccc1)c1nc(Nc2c(-c3cccnc3)cc(F)c3c2CCC3)n[nH]1` [Example 41, N-(7-fluoro-5-(pyridin-3-yl)-2,3-dihydro-1H-inden-4-yl)-5-(phenylsulfonyl)-1H-1,2,4-triazol-3-amine] yielded a half-inhibitory concentration (IC50) of at most 10 µM.

Molecule `COc1cc(-c2cc(-c3ncco3)c3c(c2Nc2nnc(S(=O)(=O)N4CCC(N(C)C)CC4)[nH]2)CCC3)ccn1` [Example 229, 1-((5-((5-(2-methoxypyridin-4-yl)-7-(oxazol-2-yl)-2,3-dihydro-1H-inden-4-yl)amino)-4H-1,2,4-triazol-3-yl)sulfonyl)-N,N-dimethylpiperidin-4-amine] returned an IC50 of at most 10 µM.

On to `O=S(=O)(NC1CCCNC1)c1nnc(Nc2c3c(cc4c2CCC4)CCC3)[nH]1` (stereo not shown) [Example 112, 5-((1,2,3,5,6,7-hexahydro-s-indacen-4-yl)amino)-N-(piperidin-3-yl)-4H-1,2,4-triazole-3-sulfonamide], for which the IC50 is at most 5 µM.

The molecule `Cc1ccc(C(C)C)c(Nc2nnc(S(=O)(=O)N3CCC(N(C)C)CC3)[nH]2)c1` [Example 206, 1-((5-((2-isopropyl-5-methylphenyl)amino)-4H-1,2,4-triazol-3-yl)sulfonyl)-N,N-dimethylpiperidin-4-amine] registered a 50% inhibitory concentration (IC50) of at most 10 µM.

For `O=S(=O)(CC1CCOC1)c1nnc(Nc2c3c(cc4c2CCC4)CCC3)[nH]1` (stereo not shown) [Example 66, N-(1,2,3,5,6,7-hexahydro-s-indacen-4-yl)-3-(((tetrahydrofuran-3-yl)methyl)sulfonyl)-1H-1,2,4-triazol-5-amine], the IC50 is at most 10 µM.

`CC(C)(O)c1ccc(S(=O)(=O)c2nnc(Nc3c4c(cc5c3CCC5)CCC4)[nH]2)cc1` [Example 186, 2-(4-((5-((1,2,3,5,6,7-hexahydro-s-indacen-4-yl)amino)-4H-1,2,4-triazol-3-yl)sulfonyl)phenyl) propan-2-01] gave an IC50 of at most 0.5 µM.

For `COc1cc(-c2cccc(C(C)C)c2Oc2nnc(S(=O)(=O)N3CCC(N(C)C)CC3)[nH]2)ccn1` [Example 243, 1-((5-(2-isopropyl-6-(2-methoxypyridin-4-yl)phenoxy)-4H-1,2,4-triazol-3-yl)sulfonyl)-N,N-dimethylpiperidin-4-amine], the concentration for half-maximal inhibition (IC50) was at most 5 µM.

In turn, `COc1cccc(S(=O)(=O)c2nnc(Nc3c4c(cc5c3CCC5)CCC4)[nH]2)c1` [Example 175, N-(1,2,3,5,6,7-hexahydro-s-indacen-4-yl)-5-((3-methoxyphenyl)sulfonyl)-4H-1,2,4-triazol-3-amine] gave an IC50 of at most 5 µM.

Molecule `COc1cc(-c2cc(F)cc(C(C)C)c2Cc2nnc(S(=O)(=O)c3ccccc3)[nH]2)ccn1` [Example 155, 4-(5-fluoro-3-isopropyl-2-((5-(phenylsulfonyl)-4H-1,2,4-triazol-3-yl)-methyl)phenyl)-2-methoxypyridine] came in with an IC50 of at most 10 µM.

Consider `CN1CCC(CN(C)S(=O)(=O)c2nnc(Nc3c4c(cc5c3CCC5)CCC4)[nH]2)C1` (stereo not shown) [Example 92, 5-((1,2,3,5,6,7-hexahydro-s-indacen-4-yl)amino)-N-methyl-N-((1-methylpyrrolidin-3-yl)methyl)-4H-1,2,4-triazole-3-sulfonamide], for which the IC50 is at most 10 µM.

Regarding `CN1CC2(CCN(S(=O)(=O)c3nnc(Nc4c5c(cc6c4CCC6)CCC5)[nH]3)CC2)C1` [Example 280, N-(1,2,3,5,6,7-hexahydro-s-indacen-4-yl)-5-((2-methyl-2,7-diazaspiro[3.5]nonan-7-yl)sulfonyl)-4H-1,2,4-triazol-3-amine], the IC50 was at most 5 µM.

Molecule `O=S(=O)(CC1CNCCO1)c1nnc(Nc2c3c(cc4c2CCC4)CCC3)[nH]1` (stereo not shown) [Example 57, N-(1,2,3,5,6,7-hexahydro-s-indacen-4-yl)-3-((morpholin-2-ylmethyl)sulfonyl)-1H-1,2,4-triazol-5-amine] displayed an IC50 of at most 10 µM.

As for `O=S(=O)(c1nnc(Nc2c3c(cc4c2CCC4)CCC3)[nH]1)N1CCC2(CCOC2)C1` (stereo not shown) [Example 314, 5-(2-oxa-7-azaspiro[4.4]nonan-7-ylsulfonyl)-N-(1,2,3,5,6,7-hexahydro-s-indacen-4-yl)-4H-1,2,4-triazol-3-amine], the IC50 is at most 5 µM.

`O=S(=O)(c1nnc(Nc2c3c(cc4c2CCC4)CCC3)[nH]1)N1CCC2(COC2)C1` [Example 333, 5-(2-oxa-6-azaspiro[3.4]octan-6-ylsulfonyl)-N-(1,2,3,5,6,7-hexahydro-s-indacen-4-yl)-4H-1,2,4-triazol-3-amine] came in with an IC50 of at most 5 µM.

Take `O=S(=O)(c1cccc(OC(F)(F)F)c1)c1nnc(Nc2c3c(cc4c2CCC4)CCC3)[nH]1` [Example 367, N-(1,2,3,5,6,7-hexahydro-s-indacen-4-yl)-5-((3-(trifluoromethoxy)phenyl)-sulfonyl)-4H-1,2,4-triazol-3-amine]: the half-maximal inhibitory concentration (IC50) was at most 5 µM.

`CN(C)S(=O)(=O)c1nnc(Nc2c3c(cc4c2CCC4)CCC3)[nH]1` [Example 262, 5-((1,2,3,5,6,7-hexahydro-s-indacen-4-yl)amino)-N,N-dimethyl-4H-1,2,4-triazole-3-sulfonamide] gave a concentration for half-maximal inhibition (IC50) of at most 5 µM.

In the case of `Cn1cc(NS(=O)(=O)c2nnc(Nc3c4c(cc5c3CCC5)CCC4)[nH]2)cn1` [Example 99, 5-((1,2,3,5,6,7-hexahydro-s-indacen-4-yl)amino)-N-(1-methyl-1H-pyrazol-4-yl)-4H-1,2,4-triazole-3-sulfonamide], the IC50 is at most 10 µM.

The molecule `Cc1noc(CS(=O)(=O)c2nnc(Nc3c4c(cc5c3CCC5)CCC4)[nH]2)n1` [Example 70, N-(1,2,3,5,6,7-hexahydro-s-indacen-4-yl)-3-(((3-methyl-1,2,4-oxadiazol-5-yl)methyl)sulfonyl)-1H-1,2,4-triazol-5-amine] returned an IC50 of at most 5 µM.

Consider `COc1cc(-c2ccc3c(c2Nc2nnc(S(C)(=O)=O)[nH]2)CCC3)ccn1` [Example 361, N-(5-(2-methoxypyridin-4-yl)-2,3-dihydro-1H-inden-4-yl)-5-(methylsulfonyl)-4H-1,2,4-triazol-3-amine], for which the IC50 is at most 10 µM.

With `C[C@@H](CN(C)C)NS(=O)(=O)c1nnc(Nc2c3c(cc4c2CCC4)CCC3)[nH]1` [Example 106, (S)—N-(1-(dimethylamino)propan-2-yl)-5-((1,2,3,5,6,7-hexahydro-s-indacen-4-yl)amino)-4H-1,2,4-triazole-3-sulfonamide], the IC50 was at most 10 µM.

Regarding `COc1cc(-c2cc(C#N)c3c(c2Nc2nnc(S(=O)(=O)N4CCC(N(C)C)CC4)[nH]2)CCC3)ccn1` [Example 230, 7-((5-((4-(dimethylamino)piperidin-1-yl)sulfonyl)-4H-1,2,4-triazol-3-yl)amino)-6-(2-methoxypyridin-4-yl)-2,3-dihydro-1H-indene-4-carbonitrile], the IC50 was at most 5 µM.

In turn, `CC(C)n1ccc(S(=O)(=O)c2nnc(Cc3c4c(cc5c3CCC5)CCC4)[nH]2)n1` [Example 30, 3-((1,2,3,5,6,7-hexahydro-s-indacen-4-yl)methyl)-5-((1-isopropyl-1H-pyrazol-3-yl)sulfonyl)-4H-1,2,4-triazole] came in with an IC50 of at most 10 µM.

With `COc1cc(-c2ccc3c(c2Cc2nnc(S(=O)(=O)c4ccn(C(C)C)n4)[nH]2)CCC3)ccn1` [Example 32, 4-(4-((5-((1-isopropyl-H-pyrazol-3-yl)sulfonyl)-4H-1,2,4-triazol-3-yl)methyl)-2,3-dihydro-1H-inden-5-yl)-2-methoxypyridine], the IC50 was at most 5 µM.

`CN1CCC(NS(=O)(=O)c2nnc(Nc3c4c(cc5c3CCC5)CCC4)[nH]2)C1` (stereo not shown) [Example 84, 5-((1,2,3,5,6,7-hexahydro-s-indacen-4-yl)amino)-N-(1-methylpyrrolidin-3-yl)-4H-1,2,4-triazole-3-sulfonamide]: the IC50 was at most 5 µM.

Regarding `CN(C)C(=O)Cn1cc(S(=O)(=O)c2nnc(Nc3c4c(cc5c3CCC5)CCC4)[nH]2)cn1` [Example 348, 2-(4-((5-((1,2,3,5,6,7-hexahydro-s-indacen-4-yl)amino)-4H-1,2,4-triazol-3-yl)sulfonyl)-1H-pyrazol-1-yl)-N,N-dimethylacetamide], the IC50 is at most 5 µM.

In turn, `CC(C)n1ncc(-c2ccncc2)c1Nc1nnc(S(=O)(=O)N2CCC(N(C)C)CC2)[nH]1` [Example 198, 1-((5-((1-isopropyl-4-(pyridin-4-yl)-1H-pyrazol-5-yl)amino)-4H-1,2,4-triazol-3-yl)sulfonyl)-N,N-dimethylpiperidin-4-amine] yielded a concentration for half-maximal inhibition (IC50) of at most 10 µM.

As to `COC1(c2cc(S(=O)(=O)c3nnc(Nc4c5c(cc6c4CCC6)CCC5)[nH]3)nn2C2CC2)COC1` [Example 16, 5-((1-cyclopropyl-5-(3-methoxyoxetan-3-yl)-1H-pyrazol-3-yl)sulfonyl)-N-(1,2,3,5,6,7-hexahydro-s-indacen-4-yl)-4H-1,2,4-triazol-3-amine], the IC50 was at most 5 µM.

In the case of `COC(=O)CN(CCN)S(=O)(=O)c1nnc(Nc2c3c(cc4c2CCC4)CCC3)[nH]1` [Example 111, methyl 2-(N-(2-aminoethyl)-5-((1,2,3,5,6,7-hexahydro-s-indacen-4-yl)amino)-4H-1,2,4-triazole-3-sulfonamido)acetate], the IC50 is at most 10 µM.

The molecule `N#Cc1ccc(S(=O)(=O)c2nnc(Nc3c4c(cc5c3CCC5)CCC4)[nH]2)cc1` [Example 184, 4-((5-((1,2,3,5,6,7-hexahydro-s-indacen-4-yl)amino)-4H-1,2,4-triazol-3-yl)sulfonyl)benzonitrile] registered a half-maximal inhibitory concentration (IC50) of at most 5 µM.

Take `COC1(c2cc([S+]([O-])c3nnc(Nc4c5c(cc6c4CCC6)CCC5)[nH]3)nn2C)COC1` (stereo not shown) [Example 26, N-(1,2,3,5,6,7-hexahydro-s-indacen-4-yl)-5-((5-(3-methoxyoxetan-3-yl)-1-methyl-1H-pyrazol-3-yl)sulfinyl)-4H-1,2,4-triazol-3-amine]: the IC50 was at most 10 µM.

`O=S(=O)(NCCc1ccccc1)c1nnc(Nc2c3c(cc4c2CCC4)CCC3)[nH]1` [Example 134, 5-((1,2,3,5,6,7-hexahydro-s-indacen-4-yl)amino)-N-phenethyl-4H-1,2,4-triazole-3-sulfonamide] showed an IC50 of at most 5 µM.
